Here are results for two molecules from article PMC4215196 (Journal of nuclear medicine : official publication, Society …, 2009).

One data set concerns A375M tumors. The conditions noted are these: µPET.
For the next data set, the system named is B16F10 melanoma. In words: Biodistribution in subcutaneous B16F10 tumor bearing mice.
Data set [1] relates to B16F10 pulmonary metastases. The data set can be described thus: Biodistribution in B16F10 lung metastases bearing mice. The conditions noted are these: 2 h p.i.
In another data set the test system is B16F10 cells. In words: In vitro cell uptake in B16F10 cells.
Data set [2] can be described thus: µPET ROI analysis, normal lung.
Data set [3] can be described thus: In vitro stability in mouse serum. The format is in vitro ADME. The conditions noted are these: for percentage of intact probe: 37°C.
Data set [4] deals with B16F10 melanoma lung metastases. In words: µPET ROI analysis, B16F10 lung metastases model. The note with it: lungs harboring metastasis.
The next data set relates to B16 melanoma. The conditions noted are these: C57BL6 mice bearing B16 melanoma, 24 h; cited from earlier work.
[5] abbreviates: subcutaneous B16F10 tumor bearing mice, 2 h p.i.

In the case of `CCN(CC)CCNC(=O)c1ccc([18F])cc1` [^18F-FBZA, ^18F-N-[2-(diethylamino)ethyl]-4-fluoro-Benzamide], the “tumor uptake, PET ROI analysis” value in the data set on A375M tumors is given as 0.86 ± 0.03 %ID/g. In addition, the “tumor to brain ratio” value in the data set with B16F10 melanoma (B16F10 model, 1 h) was found to be 5.14 ± 1.10. In the data set with B16F10 melanoma (B16F10 subcutaneous tumor bearing mice, 2 h), the lung-to-blood ratio is reported as 4.72 ± 0.46. The “Uptake Ratio Tumor / Blood” value in the data set on B16F10 melanoma (setting [5]) was 34.0 ± 13.2. Moreover, in the data set on B16F10 melanoma (setting [5]), the “Uptake Ratio Tumor / Muscle” value was 23.3 ± 10.1. The “Uptake Ratio Lung / Blood” value in data set [1] (lung metastases from 0.2 × 10^6 B16F10 cells) came out at 24.7 ± 13.5; in data set [1] (lung metastases from 0.4 × 10^6 B16F10 cells), 38.9 ± 10.3. For the same molecule, the cellular accumulation in the data set with B16F10 cells (B16F10 cells pretreated with L-tyrosine (2.0 mM) 24 h, 4°C, 30 minutes) is reported as 4.5 ± 0.5%; in the data set on B16F10 cells (non-treated B16F10 cells, 2-hour incubation, 4 °C) it was 0.49 ± 0.03%; in the data set on B16F10 cells (non-treated B16F10 cells, 2-hour incubation, 37 °C), 0.52 ± 0.1%. Besides, in the data set on B16F10 cells (B16F10 cells pretreated with L-tyrosine (2.0 mM) 24 h, 37°C, 30 minutes), the cell uptake stood at 10.7 ± 0.8%. In addition, in the data set with B16F10 cells (tyrosine stimulated B16F10 cells, 30 minutes), the “uptake at 4°C less than cellular uptake at 37°C” value was 58%. Besides, the “fold increase of uptake compared to non-treated B16F10 cells” value in the data set with B16F10 cells (tyrosine stimulated cells, 37°C) was 18–25 fold. Moreover, the “lung uptake, µPET ROI analysis” value is on record as 1.2 ± 0.2 %ID/g in data set [2], 9.0 ± 0.4 %ID/g in data set [4] (tumor dose 0.4 × 10^6 B16F10 cells) and 15.3 ± 1.1 %ID/g in data set [4] (tumor dose 0.8 × 10^6 B16F10 cells). Further, the “percentage of intact probe” value in data set [3] (30 min incubation) is recorded as 94.1%; in data set [3] (60 min incubation), 93.5%; in data set [3] (120 min incubation), 87.8%; in data set [3] (150 min incubation), 85.1%. Further, in data set [3] (up to 150 min), the Defluorination entry was “not observed”.

Consider `CCN(CC)CCNC(=O)c1ccc([125I])cc1` [^125I-BZA, N-(2-diethylaminoethy1)-4-^125I-iodo-benzamide], for which, in the data set with B16 melanoma, the tumor-to-blood ratio is 37.3 ± 6.9.
